Measurements reported in paper PMC9586938, “Picomolar fluorescent probes for compound affinity determination to carbonic anhydrase IX expressed in live cancer cells” (Scientific Reports, 2022).

How the values were obtained:
[1] = target: T1, CAII (Homo sapiens, UniProt P00918); test: Thermal shift assay (TSA), recombinant CAII; assay type: binding; conditions: 37 °C, pH 7.0, observed (not intrinsic)
T1 construct: made in house; host or cells: E. coli
Procedure: (§1) The binding affinities of all fluorescein-containing compounds were determined for all 12 catalytically active CA isozymes by the thermal shift assay (TSA). […] However, the SFA technique cannot determine the affinities lower than the enzyme concentration used in the assay. […] In addition, we used isothermal titration calorimetry (ITC), the standard assay to determine affinity and enthalpy of protein–ligand binding. […] Therefore, ITC was used only to determine the enthalpy of interaction and confirm the ordering of compound affinities.
(§2) All twelve catalytically active human CA isozymes were prepared recombinantly as previously described. Isozymes CAIX, CAXII, and CAXIV were the catalytic domains of the proteins[14],[38]. All isozymes were expressed in E. coli except CAIX that has been prepared in mammalian cells. The proteins were chromatographically purified on ion-exchange or benzene sulfonamide containing affinity columns. Protein MW was confirmed by mass spectrometry with 1 Da precision as predicted from gene sequence.
(§3) Compound affinities for the twelve catalytically active CA isozymes were determined by the thermal shift assay as previously described[30],[39]. Protein solutions containing 1,8-anilinonaphthalenesulfonate fluorescent probe were heated from 25 to 100 °C at a rate of one degree per minute while following the fluorescence of the probe. The temperature scanning curves provided the melting temperature Tm of the protein. The Tm has a distinct dependence on the concentration of a compound. Stronger binders shift the Tm to a greater extent than the weak binders. The Tm dependencies on compound concentration were fit to obtain the affinity Kd[40].

[2] = target: T2, CAIV (Homo sapiens, UniProt P22748); test: Thermal shift assay (TSA), recombinant CAIV; assay type: binding; conditions: 37 °C, pH 7.0, observed (not intrinsic)
T2 construct: made in house; host or cells: E. coli
T2 sequence (P22748 19-312): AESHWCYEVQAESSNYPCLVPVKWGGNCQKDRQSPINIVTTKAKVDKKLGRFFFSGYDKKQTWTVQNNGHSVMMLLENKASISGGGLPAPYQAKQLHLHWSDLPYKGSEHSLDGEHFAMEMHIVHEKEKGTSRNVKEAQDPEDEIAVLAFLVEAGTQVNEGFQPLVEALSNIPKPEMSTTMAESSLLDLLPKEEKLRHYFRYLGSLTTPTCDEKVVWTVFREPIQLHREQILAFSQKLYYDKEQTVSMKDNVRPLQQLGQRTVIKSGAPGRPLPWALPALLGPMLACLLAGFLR

[3] = target: T3, CAVB (Homo sapiens, UniProt Q9Y2D0); test: Thermal shift assay (TSA), recombinant CAVB; assay type: binding; conditions: 37 °C, pH 7.0, observed (not intrinsic)
T3 construct: made in house; host or cells: E. coli
T3 sequence (Q9Y2D0 34-317): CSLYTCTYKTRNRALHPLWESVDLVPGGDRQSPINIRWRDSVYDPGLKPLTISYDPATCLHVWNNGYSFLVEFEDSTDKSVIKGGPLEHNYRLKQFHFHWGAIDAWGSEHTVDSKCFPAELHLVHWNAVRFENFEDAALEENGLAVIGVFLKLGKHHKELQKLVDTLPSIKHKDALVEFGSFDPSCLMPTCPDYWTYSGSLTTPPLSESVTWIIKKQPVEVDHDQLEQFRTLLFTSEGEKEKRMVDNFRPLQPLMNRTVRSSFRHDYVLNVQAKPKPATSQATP

[4] = target: T4, CAVII (Homo sapiens, UniProt P43166); test: Thermal shift assay (TSA), recombinant CAVII; assay type: binding; conditions: 37 °C, pH 7.0, observed (not intrinsic)
T4 construct: made in house; host or cells: E. coli
T4 sequence (P43166 whole entry): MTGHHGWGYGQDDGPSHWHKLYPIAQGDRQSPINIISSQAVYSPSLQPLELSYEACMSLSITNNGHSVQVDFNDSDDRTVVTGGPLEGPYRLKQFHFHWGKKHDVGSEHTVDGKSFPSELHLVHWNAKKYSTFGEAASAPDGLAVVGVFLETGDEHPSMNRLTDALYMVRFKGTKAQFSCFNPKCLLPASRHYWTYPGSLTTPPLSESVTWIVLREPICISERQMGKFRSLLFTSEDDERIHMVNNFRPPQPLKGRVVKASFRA

[5] = target: T5, catalytic domain of recombinant human CAIX (Homo sapiens, UniProt Q16790); test: Thermal shift assay (TSA), recombinant CAIX catalytic domain; assay type: binding; conditions: for Kd: TSA, 37 °C, pH 7.0, observed (not intrinsic), read-out: Kd CAIX; for binding to CAIX by TSA (in words): recombinant CAIX
T5 construct: Isozymes CAIX, CAXII, and CAXIV were the catalytic domains of the proteins; made in house; host or cells: mammalian cells

[6] = target: T6, CAXII (Homo sapiens, UniProt O43570); test: Thermal shift assay (TSA), recombinant CAXII; assay type: binding; conditions: 37 °C, pH 7.0, observed (not intrinsic)
T6 construct: Isozymes CAIX, CAXII, and CAXIV were the catalytic domains of the proteins; made in house; host or cells: E. coli
T6 sequence (O43570 30-289 limits assumed): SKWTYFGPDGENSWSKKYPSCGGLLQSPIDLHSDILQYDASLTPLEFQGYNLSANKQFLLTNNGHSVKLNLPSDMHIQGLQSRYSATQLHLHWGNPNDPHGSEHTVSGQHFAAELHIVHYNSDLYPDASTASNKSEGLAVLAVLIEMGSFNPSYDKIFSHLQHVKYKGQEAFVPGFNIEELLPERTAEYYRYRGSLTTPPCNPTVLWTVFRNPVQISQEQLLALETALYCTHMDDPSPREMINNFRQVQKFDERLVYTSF
Procedure: as §1, §2, §3

[7] = target: T7, CAXIII (Homo sapiens, UniProt Q8N1Q1); test: Thermal shift assay (TSA), recombinant CAXIII; assay type: binding; conditions: 37 °C, pH 7.0, observed (not intrinsic)
T7 construct: made in house; host or cells: E. coli
T7 sequence (Q8N1Q1 whole entry): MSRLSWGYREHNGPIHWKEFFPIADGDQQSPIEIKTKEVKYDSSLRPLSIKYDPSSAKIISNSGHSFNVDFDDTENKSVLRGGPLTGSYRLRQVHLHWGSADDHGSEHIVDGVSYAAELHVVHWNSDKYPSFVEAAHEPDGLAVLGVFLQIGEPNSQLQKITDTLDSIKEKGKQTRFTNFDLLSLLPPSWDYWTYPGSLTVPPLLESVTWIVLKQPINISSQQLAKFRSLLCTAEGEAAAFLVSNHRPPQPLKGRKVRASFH

[8] = target: T8, recombinant human CAIX (Homo sapiens, UniProt Q16790); test: Isothermal titration calorimetry (ITC) with recombinant CAIX; assay type: binding
T8 construct: Isozymes CAIX, CAXII, and CAXIV were the catalytic domains of the proteins; made in house; host or cells: mammalian cells
Procedure: as §1
Affinities of several selected compounds to several human CA isozymes have been determined by ITC as described previously[43],[44]. The protein solution was placed in the cell of iTC200 titration calorimeter while the compound solution in identical buffer was placed in the syringe. After thermal equilibration, the compound solution was injected into the cell by identical injections. The heat produced during the reaction was measured by the calorimeter providing the shape of the curve that in turn yielded the enthalpy and the affinity Kd of the interaction.
Picomolar Fluorescent Probes for Compound Affinity Determination to Carbonic Anhydrase IX Expressed in Live Cancer Cells
Figure S1. […] The binding affinity of GZ19-32 was too high to be accurately measured by ITC due to the limitation related to the Wiseman parameter C. […]

[9] = system: HeLa CAIX-KO and normoxia-grown WT HeLa cells; test: Fluorescein-labeled compound dosing to CAIX-KO and normoxia-grown HeLa cells (non-specific binding); assay type: cell-based, human
Procedure: HeLa cell culture was grown in 12-well plates, either under hypoxia (1% O2) or under normoxia (21% O2), for 70 to 76 h. The medium was removed. Then 200 µL of serially diluted compound (twelve twofold steps) in the FB medium, usually starting at 80 nM (80, 40, 20, …, 0 nM), was added and incubated at 37 ℃ under normoxia in the CO2 incubator for 20 min (2 or 5 min in some experiments where specified). Then the compound solution was removed and the cells were washed 3 times for 1.5–2 min with 400 µL of PBS at RT. Then 180 µL of TrypLe express enzyme (ThermoFisher) was added to each well and incubated in CO2 incubator for 5 min to 10 min until the cells deattached from the surface. After addition of 20 µL of Defined Trypsin Inhibitor solution (ThermoFisher), cells were resuspended by pipetting and 150 µL of the suspension from each well were transferred to black Thermo Scientific™ Nunc MicroWell 96-Well Optical-Bottom Plates for fluorescence and absorbance measurements. The fluorescence was recorded at 485 nm excitation and 520 nm emission wavelengths in the plate reader (Synergy HTX, BioTek). The absorbance was recorded at 650 nm to measure the optical density of the cell suspension.
The compound solution was prepared by weighing 3–5 mg of a purified compound and dissolving in DMSO at 10 mM concentration. The 1 mM compound stock in DMSO was prepared by taking 10 µL of 10 mM stock and adding to 90 µL DMSO. The 10 µM compound stock was prepared by taking 10 µL of 1 mM compound stock in DMSO and adding 990 µL of the FB medium (this stock contained 1% of DMSO). Then 80 nM compound solution was prepared by taking 10 µL of 10 µM solution and adding 1.24 mL of the FB medium and placed to the first Eppendorf tube. Then 300 µL of FB medium were added to the Eppendorf tubes 2 to 12. A serial dilution was performed by taking 300 µL of solution from tube 1 to 2, then from 2 to 3 and so on while mixing vigorously at each step. No solution was transferred to the last tube thus it contained only FB medium and no compound. Then 200 µL from 12 tubes were transferred to the 12 wells of cell culture-containing 12-well plate, starting from the lowest concentration.
This equation was fit to the dosing curves of several fluorescently-labeled ligands to both the cells grown in hypoxia and in normoxia, both to the WT and CRISPR-Cas9 CAIX knockout cells. The cells bound both the GZ19-32 and GZ20-40 ligands that differed only in the length of the linker and both contained the same head-group. […] Furthermore, the ligands that had their sulfonamide amino group substituted with the methyl completely abandoned their capability of binding CAIX in this concentration region. The binding was also abolished for the CAIX-KO HeLa cells.

[10] = target: T9, CAIX on live HeLa cells (Homo sapiens, UniProt Q16790); test: Fluorescence microscopy (widefield, SRRF/TIRF) of live HeLa cells stained with fluorescein-labeled compounds; assay type: cell-based; conditions: 10 nM; for staining of live HeLa cells grown under hypoxia: 5 min
T9 construct: recombinant CAIX and endogenous CAIX expressed on the cell surface; endogenous in cells; host or cells: HeLa (WT), grown under hypoxia (1% O2)

| Compound | Kd [1] [nM] | Kd [2] [nM] | Kd [3] [nM] | Kd [4] [nM] | Kd [5] [nM] | binding to CAIX by TSA (in words) [5] | Kd [6] [nM] | Kd [7] [nM] | binding to CAIX by ITC (in words) [8] | non-specific binding to cells ([9]; micromolar concentration range, Fig. 9B, 9C) | staining of live HeLa cells grown under hypoxia [10] | concentration above which compound binds normoxia-grown WT and CAIX-KO HeLa cells ([9]; 5 min incubation, Fig. 9A) [nM] | fluorescence of compound bound to HeLa CAIX-KO cells ([9]; CAIX-KO cells grown under hypoxia, 10 nM to 100 nM) | Manders overlap coefficient M1, colocalization with H7 CAIX antibody ([10]; hypoxia-grown live HeLa cells) | Manders overlap coefficient M2, colocalization with H7 CAIX antibody ([10]; hypoxia-grown live HeLa cells) | object based spot collocalization with H7 CAIX antibody ([10]; hypoxia-grown live HeLa cells) | pixel based Person's correlation coefficient, colocalization with H7 CAIX antibody ([10]; hypoxia-grown live HeLa cells) | Pearson co-localization coefficient with CAXII-selective 1B10 antibody ([10]; hypoxia-grown live HeLa cells, SRRF/TIRF) |
| --- | --- | --- | --- | --- | --- | --- | --- | --- | --- | --- | --- | --- | --- | --- | --- | --- | --- | --- |
| 3-((2-(cyclooctylamino)-3,5,6-trifluoro-4-(methylsulfonyl)phenyl)sulfonyl)-N-(3',6'-dihydroxy-3-oxo-3H-spiro[isobenzofuran-1,9'-xanthen]-5-yl)propanamide and 3-((3-(cyclooctylamino)-2,5,6-trifluoro-4-(methylsulfonyl)phenyl)sulfonyl)-N-(3',6'-dihydroxy-3-oxo-3H-spiro[isobenzofuran-1,9'-xanthen]-5-yl)propanamide [GZ20-37] | > 100000 | > 100000 | > 100000 | > 100000 | > 100000 | did not show binding | > 100000 | > 100000 | did not show binding | bound cells in the micromolar concentration range | did not bind |  |  |  |  |  |  |  |
| NS(=O)(=O)c1c(F)c(F)c(S(=O)(=O)CCC(=O)Nc2ccc3c(c2)C(=O)OC32c3ccc(O)cc3Oc3cc(O)ccc32)c(NC2CCCCCCC2)c1F [GZ19-32, 3-((2-(cyclooctylamino)-3,5,6-trifluoro-4-sulfamoylphenyl)sulfonyl)-N-(3',6'-dihydroxy-3-oxo-3H-spiro[isobenzofuran-1,9'-xanthen]-5-yl)propanamide] | 14 | 100 | 13 | 5 | 0.005 | high affinity for CAIX (pM range) | 1.3 | 0.67 | too high to be accurately measured |  | labeled the cell membrane | > 100 | did not show an increase in fluorescence | 0.82 | 0.65 | 0.75 | 0.82 | 0.02 |
